test system: Rhizoctonia solani (RHIZSO); test: microbe, parasite or virus in culture; format: cell-based; details: Rhizoctonia solani, read-out: RHIZSO in vitro Growth Inhibition

| Compound | inhibition at 25 ppm [%] |
| --- | --- |
| COc1ccnc(C(=O)Nc2cccc(Sc3ccc(C(F)(F)F)cc3)c2)c1OC(C)=O [Compound 710] | < 80 |
| COc1ccnc(C(=O)NC2CC(C)(C)C(OC(=O)CC(C)C)C(C)(C)C2)c1O (centres unmarked) [Compound 267] | < 80 |
| COc1ccnc(C(=O)N[C@@H]2OC[C@@H](OCc3ccccc3)[C@H](OCc3ccccc3)[C@H]2OCc2ccccc2)c1OC(C)=O [Compound 592] | < 80 |
| COc1ccnc(C(=O)N[C@@H](COCc2ccccc2)C(=O)O[C@@H](C)[C@H](OC(=O)C(C)C)[C@@H](Cc2ccccc2)C(=O)OCc2ccccc2)c1O [Compound 342] | < 80 |

test system: Septoria tritici—SEPTTR; test: Leaf Blotch of Wheat, in vivo whole plant, 24 Hour Protectant; details: 100 ppm spray, wheat, 24 hour protectant, % control of fungal infection vs untreated plants

| Compound | SEPTTR in vivo 1 Day Protectant |
| --- | --- |
| COc1ccnc(C(=O)Nc2cccc(Sc3ccc(C(F)(F)F)cc3)c2)c1OC(C)=O [Compound 710] | + + |

same assay, conditions: Zymoseptoria tritici, 24 h, 100 ppm spray, 24 hour protectant, wheat; control of fungal infection vs untreated plants; read-out: SEPTTR in vivo 1 Day Protectant

| Compound | pest or weed control at 100 ppm [%] |
| --- | --- |
| COc1ccnc(C(=O)NC2CC(C)(C)C(OC(=O)CC(C)C)C(C)(C)C2)c1O (centres unmarked) [Compound 267] | < 25 |

same assay, conditions: Zymoseptoria tritici, 24 h, 100 ppm spray, wheat, 24 hour protectant; control of fungal infection vs untreated plants; read-out: SEPTTR in vivo 1 Day Protectant

| Compound | pest or weed control at 100 ppm [%] |
| --- | --- |
| COc1ccnc(C(=O)N[C@@H](COCc2ccccc2)C(=O)O[C@@H](C)[C@H](OC(=O)C(C)C)[C@@H](Cc2ccccc2)C(=O)OCc2ccccc2)c1O [Compound 342] | 25 to 74 |

same assay, conditions: Zymoseptoria tritici, 24 h, wheat plants sprayed at 100 ppm, inoculated after 24 hours; control of fungal infection vs untreated plants; read-out: SEPTTR in vivo 1 Day Protectant

| Compound | pest or weed control at 100 ppm [%] |
| --- | --- |
| COc1ccnc(C(=O)N[C@@H]2OC[C@@H](OCc3ccccc3)[C@H](OCc3ccccc3)[C@H]2OCc2ccccc2)c1OC(C)=O [Compound 592] | 25 to 74 |

test system: Erysiphe graminis—ERYSGT; test: Powdery Mildew of Wheat, in vivo whole plant, 24 Hour Protectant; details: Erysiphe; 100 ppm spray, 24 hour protectant, wheat; control of fungal infection vs untreated plants; read-out: ERYSGT in vivo 1 Day Protectant

| Compound | pest or weed control at 100 ppm [%] |
| --- | --- |
| COc1ccnc(C(=O)NC2CC(C)(C)C(OC(=O)CC(C)C)C(C)(C)C2)c1O (centres unmarked) [Compound 267] | < 25 |

same assay, conditions: Erysiphe; 100 ppm spray, wheat, 24 hour protectant, % control of fungal infection vs untreated plants; read-out: ERYSGT in vivo 1 Day Protectant

| Compound | pest or weed control at 100 ppm [%] |
| --- | --- |
| COc1ccnc(C(=O)Nc2cccc(Sc3ccc(C(F)(F)F)cc3)c2)c1OC(C)=O [Compound 710] | < 25 |

same assay, conditions: Erysiphe; 100 ppm spray, wheat, 24 hour protectant; control of fungal infection vs untreated plants; read-out: ERYSGT in vivo 1 Day Protectant

| Compound | pest or weed control at 100 ppm [%] |
| --- | --- |
| COc1ccnc(C(=O)N[C@@H](COCc2ccccc2)C(=O)O[C@@H](C)[C@H](OC(=O)C(C)C)[C@@H](Cc2ccccc2)C(=O)OCc2ccccc2)c1O [Compound 342] | 25 to 74 |

same assay, conditions: Erysiphe; wheat plants sprayed at 100 ppm, inoculated after 24 hours; control of fungal infection vs untreated plants; read-out: ERYSGT in vivo 1 Day Protectant

| Compound | pest or weed control at 100 ppm [%] |
| --- | --- |
| COc1ccnc(C(=O)N[C@@H]2OC[C@@H](OCc3ccccc3)[C@H](OCc3ccccc3)[C@H]2OCc2ccccc2)c1OC(C)=O [Compound 592] | < 25 |

test system: Stagonospora nodorum (Leptosphaeria nodorum—LEPTNO); test: In vitro fungal growth inhibition, Stagonospora nodorum (LEPTNO); format: cell-based; details: Leptosphaeria; 25 ppm in growth medium; read-out: LEPTNO in vitro Growth Inhibition

| Compound | inhibition at 25 ppm [%] |
| --- | --- |
| COc1ccnc(C(=O)Nc2cccc(Sc3ccc(C(F)(F)F)cc3)c2)c1OC(C)=O [Compound 710] | > 80 |
| COc1ccnc(C(=O)NC2CC(C)(C)C(OC(=O)CC(C)C)C(C)(C)C2)c1O (centres unmarked) [Compound 267] | > 80 |
| COc1ccnc(C(=O)N[C@@H](COCc2ccccc2)C(=O)O[C@@H](C)[C@H](OC(=O)C(C)C)[C@@H](Cc2ccccc2)C(=O)OCc2ccccc2)c1O [Compound 342] | < 80 |

same assay, conditions: Leptosphaeria; 25 ppm in the growth medium; read-out: LEPTNO in vitro Growth Inhibition

| Compound | inhibition at 25 ppm [%] |
| --- | --- |
| COc1ccnc(C(=O)N[C@@H]2OC[C@@H](OCc3ccccc3)[C@H](OCc3ccccc3)[C@H]2OCc2ccccc2)c1OC(C)=O [Compound 592] | < 80 |

test system: Phytophthora infestans (PHYTIN); test: microbe, parasite or virus in culture; format: cell-based; details: Phytophthora infestans, read-out: PHYTIN in vitro Growth Inhibition

| Compound | inhibition at 25 ppm [%] |
| --- | --- |
| COc1ccnc(C(=O)Nc2cccc(Sc3ccc(C(F)(F)F)cc3)c2)c1OC(C)=O [Compound 710] | < 80 |
| COc1ccnc(C(=O)NC2CC(C)(C)C(OC(=O)CC(C)C)C(C)(C)C2)c1O (centres unmarked) [Compound 267] | > 80 |
| COc1ccnc(C(=O)N[C@@H]2OC[C@@H](OCc3ccccc3)[C@H](OCc3ccccc3)[C@H]2OCc2ccccc2)c1OC(C)=O [Compound 592] | < 80 |
| COc1ccnc(C(=O)N[C@@H](COCc2ccccc2)C(=O)O[C@@H](C)[C@H](OC(=O)C(C)C)[C@@H](Cc2ccccc2)C(=O)OCc2ccccc2)c1O [Compound 342] | < 80 |

test system: Magnaporthe grisea (Pyricularia oryzae—PYRIOR); test: microbe, parasite or virus in culture; format: cell-based; details: Pyricularia oryzae, read-out: PYRIOR in vitro Growth Inhibition

| Compound | inhibition at 25 ppm [%] |
| --- | --- |
| COc1ccnc(C(=O)Nc2cccc(Sc3ccc(C(F)(F)F)cc3)c2)c1OC(C)=O [Compound 710] | > 80 |
| COc1ccnc(C(=O)NC2CC(C)(C)C(OC(=O)CC(C)C)C(C)(C)C2)c1O (centres unmarked) [Compound 267] | < 80 |
| COc1ccnc(C(=O)N[C@@H]2OC[C@@H](OCc3ccccc3)[C@H](OCc3ccccc3)[C@H]2OCc2ccccc2)c1OC(C)=O [Compound 592] | < 80 |
| COc1ccnc(C(=O)N[C@@H](COCc2ccccc2)C(=O)O[C@@H](C)[C@H](OC(=O)C(C)C)[C@@H](Cc2ccccc2)C(=O)OCc2ccccc2)c1O [Compound 342] | < 80 |

test system: Ustilago maydis (USTIMA); test: microbe, parasite or virus in culture; format: cell-based; details: Mycosarcoma maydis, read-out: USTIMA in vitro Growth Inhibition

| Compound | inhibition at 25 ppm [%] |
| --- | --- |
| COc1ccnc(C(=O)Nc2cccc(Sc3ccc(C(F)(F)F)cc3)c2)c1OC(C)=O [Compound 710] | < 80 |
| COc1ccnc(C(=O)NC2CC(C)(C)C(OC(=O)CC(C)C)C(C)(C)C2)c1O (centres unmarked) [Compound 267] | > 80 |
| COc1ccnc(C(=O)N[C@@H]2OC[C@@H](OCc3ccccc3)[C@H](OCc3ccccc3)[C@H]2OCc2ccccc2)c1OC(C)=O [Compound 592] | < 80 |
| COc1ccnc(C(=O)N[C@@H](COCc2ccccc2)C(=O)O[C@@H](C)[C@H](OC(=O)C(C)C)[C@@H](Cc2ccccc2)C(=O)OCc2ccccc2)c1O [Compound 342] | > 80 |

test system: Leptosphaeria nodorum—LEPTNO; test: Glume Blotch of Wheat, in vivo whole plant, 24 Hour Protectant; details: 100 ppm spray, wheat, 24 hour protectant, % control of fungal infection vs untreated plants

| Compound | LEPTNO in vivo 1 Day Protectant |
| --- | --- |
| COc1ccnc(C(=O)Nc2cccc(Sc3ccc(C(F)(F)F)cc3)c2)c1OC(C)=O [Compound 710] | + + |

same assay, conditions: Leptosphaeria; 100 ppm spray, 24 hour protectant, wheat; control of fungal infection vs untreated plants; read-out: LEPTNO in vivo 1 Day Protectant

| Compound | pest or weed control at 100 ppm [%] |
| --- | --- |
| COc1ccnc(C(=O)NC2CC(C)(C)C(OC(=O)CC(C)C)C(C)(C)C2)c1O (centres unmarked) [Compound 267] | 25 to 74 |

same assay, conditions: Leptosphaeria; 100 ppm spray, wheat, 24 hour protectant; control of fungal infection vs untreated plants; read-out: LEPTNO in vivo 1 Day Protectant

| Compound | pest or weed control at 100 ppm [%] |
| --- | --- |
| COc1ccnc(C(=O)N[C@@H](COCc2ccccc2)C(=O)O[C@@H](C)[C@H](OC(=O)C(C)C)[C@@H](Cc2ccccc2)C(=O)OCc2ccccc2)c1O [Compound 342] | 25 to 74 |

same assay, conditions: Leptosphaeria; wheat plants sprayed at 100 ppm, inoculated after 24 hours; control of fungal infection vs untreated plants; read-out: LEPTNO in vivo 1 Day Protectant

| Compound | pest or weed control at 100 ppm [%] |
| --- | --- |
| COc1ccnc(C(=O)N[C@@H]2OC[C@@H](OCc3ccccc3)[C@H](OCc3ccccc3)[C@H]2OCc2ccccc2)c1OC(C)=O [Compound 592] | 25 to 74 |

test system: Phytophthora infestans—PHYTIN; test: whole plant or invertebrate; format: in vivo; details: Phytophthora, in Solanum lycopersicum, 24 h, read-out: PHYTIN in vivo 1 Day Protectant

| Compound | pest or weed control at 100 ppm [%] |
| --- | --- |
| COc1ccnc(C(=O)Nc2cccc(Sc3ccc(C(F)(F)F)cc3)c2)c1OC(C)=O [Compound 710] | < 25 |
| COc1ccnc(C(=O)NC2CC(C)(C)C(OC(=O)CC(C)C)C(C)(C)C2)c1O (centres unmarked) [Compound 267] | < 25 |
| COc1ccnc(C(=O)N[C@@H]2OC[C@@H](OCc3ccccc3)[C@H](OCc3ccccc3)[C@H]2OCc2ccccc2)c1OC(C)=O [Compound 592] | < 25 |
| COc1ccnc(C(=O)N[C@@H](COCc2ccccc2)C(=O)O[C@@H](C)[C@H](OC(=O)C(C)C)[C@@H](Cc2ccccc2)C(=O)OCc2ccccc2)c1O [Compound 342] | < 25 |

test system: Mycosphaerella graminicola (Septoria tritici—SEPTTR); test: In vitro fungal growth inhibition, Mycosphaerella graminicola (SEPTTR); format: cell-based; details: Zymoseptoria tritici; 25 ppm in growth medium; read-out: SEPTTR in vitro Growth Inhibition

| Compound | inhibition at 25 ppm [%] |
| --- | --- |
| COc1ccnc(C(=O)Nc2cccc(Sc3ccc(C(F)(F)F)cc3)c2)c1OC(C)=O [Compound 710] | > 80 |
| COc1ccnc(C(=O)NC2CC(C)(C)C(OC(=O)CC(C)C)C(C)(C)C2)c1O (centres unmarked) [Compound 267] | < 80 |
| COc1ccnc(C(=O)N[C@@H](COCc2ccccc2)C(=O)O[C@@H](C)[C@H](OC(=O)C(C)C)[C@@H](Cc2ccccc2)C(=O)OCc2ccccc2)c1O [Compound 342] | < 80 |

same assay, conditions: Zymoseptoria tritici; 25 ppm in the growth medium; read-out: SEPTTR in vitro Growth Inhibition

| Compound | inhibition at 25 ppm [%] |
| --- | --- |
| COc1ccnc(C(=O)N[C@@H]2OC[C@@H](OCc3ccccc3)[C@H](OCc3ccccc3)[C@H]2OCc2ccccc2)c1OC(C)=O [Compound 592] | < 80 |

test system: Puccinia recondita—PUCCRT; test: Brown Rust of Wheat, in vivo whole plant, 24 Hour Protectant; details: 100 ppm spray, wheat, 24 hour protectant, % control of fungal infection vs untreated plants

| Compound | PUCCRT in vivo 1 Day Protectant |
| --- | --- |
| COc1ccnc(C(=O)Nc2cccc(Sc3ccc(C(F)(F)F)cc3)c2)c1OC(C)=O [Compound 710] | + + |

same assay, conditions: 100 ppm spray, wheat, 24 hour protectant; control of fungal infection vs untreated plants

| Compound | PUCCRT in vivo 1 Day Protectant |
| --- | --- |
| COc1ccnc(C(=O)N[C@@H](COCc2ccccc2)C(=O)O[C@@H](C)[C@H](OC(=O)C(C)C)[C@@H](Cc2ccccc2)C(=O)OCc2ccccc2)c1O [Compound 342] | + + |

same assay, conditions: Puccinia; 100 ppm spray, 24 hour protectant, wheat; control of fungal infection vs untreated plants; read-out: PUCCRT in vivo 1 Day Protectant

| Compound | pest or weed control at 100 ppm [%] |
| --- | --- |
| COc1ccnc(C(=O)NC2CC(C)(C)C(OC(=O)CC(C)C)C(C)(C)C2)c1O (centres unmarked) [Compound 267] | 25 to 74 |

same assay, conditions: Puccinia; wheat plants sprayed at 100 ppm, inoculated after 24 hours; control of fungal infection vs untreated plants; read-out: PUCCRT in vivo 1 Day Protectant

| Compound | pest or weed control at 100 ppm [%] |
| --- | --- |
| COc1ccnc(C(=O)N[C@@H]2OC[C@@H](OCc3ccccc3)[C@H](OCc3ccccc3)[C@H]2OCc2ccccc2)c1OC(C)=O [Compound 592] | < 25 |
